# Target: T1, RXRα (Homo sapiens, UniProt P19793)
# T1 sequence (P19793 227-458 limits assumed): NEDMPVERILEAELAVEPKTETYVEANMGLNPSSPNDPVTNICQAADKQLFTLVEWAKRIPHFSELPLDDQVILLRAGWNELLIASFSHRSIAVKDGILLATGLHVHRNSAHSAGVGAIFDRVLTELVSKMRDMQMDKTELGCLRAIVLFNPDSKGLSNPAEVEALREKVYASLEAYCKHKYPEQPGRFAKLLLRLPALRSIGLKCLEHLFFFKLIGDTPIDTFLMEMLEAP
# Experiment: RXRα activation EC50 (Luc and GFP UAS/Gal4 assays)
# Description: UAS/Gal4 assay. Bone marrow cells from UAS-GFP mice [79] were transduced with retroviruses MSCV-Gal4 (DNA binding domain, DBD)—RXRα (ligand binding domain, LBD)—IRES—mCherry. […] Cells were treated, and after 48 h, GFP was measured by flow cytometry.
# Luciferase detection. HEK293T cells were transfected using Lipofectamine 2000 (Invitrogen) [80]. Six hours after transfection, the cells were collected and plated into a 48-well plate in 1% BSA media in biological triplicates and treated with compounds. After 40 h incubation, the cells were harvested and assayed for luciferase (Luc Assay System with Reporter Lysis Buffer, Promega) in a Beckman Coulter LD400 plate reader.
row,EC50 [µM],SMILES
1,0.0018,C=CCN(c1ccc(C(=O)O)cn1)c1cc2c(cc1C)C(C)(C)CCC2(C)C [Compound 32]
2,0.0053,C=CCN(c1ncc(C(=O)O)cn1)c1cc2c(cc1C)C(C)(C)CCC2(C)C [Compound 33]
3,0.00054,C=CCN(c1ccc2c(c1)C(C)(C)CCC2(C)C)c1ncc(C(=O)O)cn1 [Compound 35]
4,0.0054,Cc1cc2c(cc1N(C)c1ccc(C(=O)O)cn1)C(C)(C)CCC2(C)C [Compound 31]
5,0.0115,C=CCN(c1ccc(C(=O)O)cc1)c1cc2c(cc1C)C(C)(C)CCC2(C)C [Compound 34]
6,0.0237,CCN(c1ccc(C(=O)O)cn1)c1cc2c(cc1C)C(C)(C)OCC2(C)C [Compound 38]
7,0.0086,"Cc1cc2c(cc1N(C)c1ccc(C(=O)O)cc1)C(C)(C)CCC2(C)C [Compound 23, reference compound]"
8,0.0107,C=CCN(c1ccc(C(=O)O)cn1)c1cc2c(cc1C)C(C)(C)OCC2(C)C [Compound 40]

# The remaining lines, values behind:
row,SMILES,EC50 [µM]
1,Cc1cc2c(cc1N(C)c1ccc(C(=O)O)cn1)C(C)(C)COC2(C)C [Compound 36],0.075
2,C=C(c1ccc(C(=O)O)cc1)c1cc2c(cc1C)C(C)(C)OCC2(C)C [Compound 26],0.051
3,Cc1cc2c(cc1N(C)c1ccc(C(=O)O)cc1)C(C)(C)COC2(C)C [Compound 42],0.0877
4,Cc1ccc(/C=C/C(=O)O)cc1-c1cc2c(cc1C)C(C)(C)OCC2(C)C [Compound 27],0.0653
5,Cc1cc2c(cc1-c1coc3cc(C(=O)O)ccc13)C(C)(C)COC2(C)C [Compound 30],> 1
6,CCN(c1ncc(C(=O)O)cn1)c1cc2c(cc1C)C(C)(C)OCC2(C)C [Compound 39],0.152
7,C=CCN(c1ncc(C(=O)O)cn1)c1cc2c(cc1C)C(C)(C)OCC2(C)C [Compound 41],0.143
8,Cc1cc2c(cc1-c1cc(/C=C/C(=O)O)ccc1C(F)(F)F)C(C)(C)COC2(C)C [Compound 28],0.0592
9,Cc1cc2c(cc1N(C)c1ncc(C(=O)O)cn1)C(C)(C)COC2(C)C [Compound 37],0.405
10,Cc1cc2c(cc1-c1cc(/C=C/C(=O)O)ccc1O)C(C)(C)COC2(C)C [Compound 29],0.0039
11,CCN(c1ccc(C(=O)O)cc1)c1cc2c(cc1C)C(C)(C)OCC2(C)C [Compound 43],0.0231
12,"Cc1cc2c(cc1N(C)c1ncc(C(=O)O)cn1)C(C)(C)CCC2(C)C [Compound 24, reference compound]",0.0062
13,C=CCN(c1ccc(C(=O)O)cc1)c1cc2c(cc1C)C(C)(C)OCC2(C)C [Compound 44],0.116
14,"CN(c1ccc2c(c1)C(C)(C)CCC2(C)C)c1ncc(C(=O)O)cn1 [Compound 25, reference compound]",0.0178

# — PMC9782500 (International Journal of Molecular Sciences, 2022)
